Experimental data reported in patent publication US7691863B2, “Pyrazine-2-carboxamide derivatives as CB2 receptor modulators” (Hoffman-La Roche Inc., priority 2006, dated 2010).

Target: T1, human cannabinoid CB2 receptor (Homo sapiens, UniProt P34972)
T1 construct: expressed in transfected cells; host or cells: human embryonic kidney (HEK) cells, transient, Semliki Forest virus system
Assay: Affinity for cannabinoid CB2 receptors, [3H]-CP-55,940 radioligand binding on membrane preparations of transfected HEK cells
Conditions: [3H]-CP-55,940 as radioligand, HEK cell membranes
Experimental: The affinity of the compounds of the invention for cannabinoid CB2 receptors was determined using membrane preparations of human embryonic kidney (HEK) cells in which the human cannabinoid CB2 receptor is transiently transfected using the Semliki Forest virus system in conjunction with [3H]-CP-55,940 as radioligand. After incubation of a cell membrane preparation with the [3H]-ligand, with or without addition of compounds of the invention, separation of bound and free ligand was performed by filtration over glassfiber filters. Radioactivity on the filter was measured by liquid scintillation counting.

T1 sequence (P34972 whole entry): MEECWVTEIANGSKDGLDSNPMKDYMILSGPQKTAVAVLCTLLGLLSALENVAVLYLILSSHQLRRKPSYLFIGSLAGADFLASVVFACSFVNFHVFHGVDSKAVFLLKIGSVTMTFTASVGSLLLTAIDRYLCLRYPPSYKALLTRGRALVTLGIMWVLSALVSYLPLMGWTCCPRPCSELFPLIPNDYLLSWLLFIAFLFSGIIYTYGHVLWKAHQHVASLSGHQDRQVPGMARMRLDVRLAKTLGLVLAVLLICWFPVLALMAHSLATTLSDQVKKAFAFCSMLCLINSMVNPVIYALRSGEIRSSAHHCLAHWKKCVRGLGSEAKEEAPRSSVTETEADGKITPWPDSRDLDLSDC

“2-Ethyl-2-{[5-pyrrolidin-1-yl-6-(2,2,2-trifluoro-ethoxy)-pyrazine-2-carbonyl]-amino}-pentanoic acid methyl ester [Example 14]” was tested. Which Ki did it give?
The Ki was 0.063 µM.

“6-Cyclopropylmethoxy-5-pyrrolidin-1-yl-pyrazine-2-carboxylic acid ((S)-1-hydroxymethyl-3-methyl-butyl)-amide [Example 4]” was tested. Which Ki did it give?
Its Ki is 0.044 µM.

With `CC(C)C[C@@H](CO)NC(=O)c1cnc(OCC2CC2)c(N2CCCCC2)n1` [Example 44, 5-Cyclopropylmethoxy-6-piperidin-1-yl-pyrazine-2-carboxylic acid ((S)-1-hydroxymethyl-3-methyl-butyl)-amide] as the compound, how does the Ki read?
Its Ki is 0.043 µM.
